In general, half-life refers to the time in which the quantity being followed falls by half.

The source of these data is PubChem BioAssay AID1508591.

For the data set the following is noted: rat; liver microsomes; pH 7.4; 15.0 min; 1.0 µM.
With `COc1cnccc1-c1nc(Nc2ccc(F)c(F)c2)c2ccccc2n1`, the half-life was over 30 min.

On to `CSc1ccc(C(=O)c2[nH]c(=O)[nH]c2C)cc1`, for which the half-life was over 30 min.

Compound `CCCc1cc(=O)oc2c3c(c4c(c12)OC(C)(C)C=C4)OC(C)C(C)C3O` (stereo unspecified) showed a half-life of 13.2 min.

`Cc1ccc(S(=O)(=O)Nc2cnccc2C(=O)Nc2nc(-c3cnn(C)c3)cs2)cc1` gave a half-life of 13 min.

In turn, `O=C(NCCCNc1nc(Nc2cccc(CN3CCOCC3)c2)ncc1C1CC1)C1CCC1` registered a half-life of 6.85 min.

Turning to `Cc1cc(C)nc(N2CCCC(C(=O)NCCc3ccc(F)cc3)C2)n1` (stereo unspecified), the half-life is 1.6 min.

As for `Cc1ccc2c(c1)/C(=C\c1cc(Cl)c(O)c(Cl)c1)C(=O)N2`, the half-life was determined as 22 min.

Consider `Cc1ccc(-c2ccnc(N3CCC(C(N)=O)CC3)n2)cc1`, for which the half-life is 2.35 min.

Compound `Cn1nnnc1Sc1ncnc2scc(-c3cccc(S(C)(=O)=O)c3)c12` displayed a half-life of over 30 min.

Regarding `O=C(Nc1ncccc1O)c1ccc(S(=O)(=O)Nc2ccccc2)cc1`, the half-life came out at 2.58 min.

In turn, `CCc1ccccc1OC[C@@H](O)CN[C@H]1CCCc2ccccc21` registered a half-life of 1.8 min.

For the compound `Cc1ccnc(NC(=S)N2CCCC(Nc3cccc(C(F)(F)F)c3)C2)c1` (stereo unspecified), the half-life came out at 11 min.

The compound `CN(Cc1cccs1)c1ncnc2ccc(-c3ccc4c(c3)OCO4)cc12` had a half-life of 1.44 min.

In turn, `CC(C)Oc1ccccc1C(=O)Nc1nc(-c2ccccc2)cs1` returned a half-life of 9 min.

Turning to `c1ccc(Nc2cc(-c3ccoc3)ncn2)cc1`, the half-life was 8.6 min.

`COc1cc(Cl)c(C)cc1NS(=O)(=O)c1c(C)nc2sccn2c1=O` yielded a half-life of 1.53 min.

Take `Cc1ccc(-c2cc(C(=O)O)c3ccccc3n2)cc1`: the half-life is 22.4 min.

The compound `CCCOc1ccc2nc(NC(=O)OC)[nH]c2c1` displayed a half-life of over 30 min.

For `CCOc1ccc(N2C(=O)c3n[nH]c(-c4cccs4)c3C2c2cccc(F)c2)cc1` (stereo unspecified), the half-life was 14.2 min.

`CCOC(=O)c1ccc2c(c1)c(C(C)=O)c(C)n2-c1ccc(OC)cc1` registered a half-life of 1.5 min.

In turn, `Nc1nc2c(s1)C(c1ccc(F)cc1F)CC(=O)N2` (stereo unspecified) registered a half-life of over 30 min.

As for `CCN1CCc2c(sc(NC(=O)Nc3ccc(Cl)c(Cl)c3)c2C(N)=O)C1`, the half-life is over 30 min.

Consider `O=c1n(-c2ccc(Cl)cc2)nc2n1CCN(Cc1ccc(C(F)(F)F)cc1)C2`, for which the half-life is over 30 min.

For `O=C1CCC(CNC(=O)c2nc(-c3ccccc3)cc3[nH]ccc23)N1` (stereo unspecified), the half-life was over 30 min.

`Cc1cc(C)c(CNC(=O)c2nc(-c3cccc(CO)c3)cc3c2ccn3C)c(=O)[nH]1` had a half-life of 8.11 min.

For the compound `NC(=O)C1CCN(c2nc(-c3ccc(Cl)cc3)cs2)CC1`, the half-life worked out at 3.09 min.

`Cc1cc(C(=O)Nc2nnc(C3CCCCC3)s2)cs1`: the half-life was determined as 7.1 min.

Compound `O=C(Nc1nc(-c2ccccc2)cs1)c1ccncc1NS(=O)(=O)c1ccc2c(c1)CCC2` showed a half-life of 5.6 min.

As for `O=C(NC1CCCc2c1cnn2-c1ccc(O)cc1)c1ccccn1` (stereo unspecified), the half-life was over 30 min.

For `O=C1CCCC2=C1C(c1[nH]ncc1Br)N=C(Nc1nc3ccccc3o1)N2` (stereo unspecified), the half-life was determined as 14 min.

Compound `C[C@@H]1COCCN1c1cc(C2(S(C)(=N)=O)CC2)nc(-c2ccnc3[nH]ccc23)n1` (stereo partly specified) displayed a half-life of over 30 min.

Compound `NC(=O)C1CCN(c2nc(-c3ccccc3)cs2)CC1` had a half-life of 3.88 min.

For `Cc1ccc2oc3c(c(=O)c2c1)C(c1ccc(O)cc1)N(CCCN(C)C)C3=O` (stereo unspecified), the half-life was over 30 min.

`CCC(=O)NC(c1ccco1)c1cc(Cl)c2cccnc2c1O` (stereo unspecified) displayed a half-life of 3.3 min.

In turn, `COc1ccc(NC(=O)c2[nH]c(C)c(C(C)=O)c2C)cc1` came in with a half-life of over 30 min.

`CCc1ccc(NC(=O)c2[nH]c(C)c(C(C)=O)c2C)cc1S(=O)(=O)Nc1ccc(C#N)cc1` had a half-life of 14.7 min.

Take `CNC(=O)Cn1cc(-c2ccc3c(c2)C(F)CC32NC(=O)N(CC(=O)N(Cc3ccc(F)cc3)[C@@H](C)C(F)(F)F)C2=O)cn1` (stereo partly specified): the half-life was 18.9 min.

`CC(=O)c1c(C)[nH]c(C(=O)Nc2ccc(OCCCN(C)C)c(S(=O)(=O)Nc3ccc(Br)cc3)c2)c1C` displayed a half-life of over 30 min.

As to `CC(=O)N1CCN(c2ccc(OCc3nn(C)c(C)c3-c3cccc4c(CCCOc5cc(C)c(Cl)c(C)c5)c(C(=O)O)n(Cc5cccnc5)c34)cc2)CC1`, the half-life was determined as 8.9 min.

`Cc1ccc(-c2csc(N3CCC(C(N)=O)CC3)n2)cc1` displayed a half-life of 2.22 min.

Compound `N#CC1CCN(c2nc(-c3ccc(Br)cc3)cs2)CC1` registered a half-life of 24.7 min.

On to `Brc1ccc(-c2csc(N3CCC(c4nn[nH]n4)CC3)n2)cc1`, for which the half-life was over 30 min.

For `CS(=O)(=O)c1ccc2nc(NC(=O)C3CC3)sc2c1`, the half-life was over 30 min.

In turn, `Cc1ccc(-c2cc(C(=O)NC3CCCCC3)c3ccccc3n2)cc1` showed a half-life of 9.42 min.

As for `NCC(=O)Nc1ccc(Cl)cc1C(=O)c1ccc[nH]1`, the half-life is over 30 min.

Regarding `Cc1cc(C)nc(NC(=S)N2CCN(c3nccc(C(F)(F)F)n3)CC2)c1`, the half-life is 16 min.

Turning to `CC1=C[C@@H](CN2C(=O)C(C)=C(C)C2=O)[C@H](C(C)C)C[C@H]1Cc1nc2c(C)cccc2[nH]1`, the half-life stood at 1.3 min.

For the compound `CN1CCN(C(=O)Cc2c[nH]c3ncc(-c4ccccc4Oc4ccccc4)cc23)CC1`, the half-life is 1.72 min.

As for `O=c1ncn2nc(Sc3ccc(F)cc3F)ccc2c1-c1c(Cl)cccc1Cl`, the half-life was over 30 min.

As to `O=S(=O)(Nc1nccs1)c1ccc(NCc2ccc(Br)cc2O)cc1`, the half-life was 5.4 min.

Turning to `COc1cccc(CC(=O)Nc2nc(-c3ccc4c(c3)CCN4C(=O)c3ccccc3C)c(C)s2)c1`, the half-life stood at 19 min.

Compound `CCCOC(=O)c1ccc(Oc2c(-c3ccc(O)cc3O)n[nH]c2C)cc1` had a half-life of 3.04 min.

`Clc1ccc2ncc(-c3cccc(NC4CCNCC4)n3)n2c1` came in with a half-life of over 30 min.

For `O=C(Nc1ccc(S(=O)(=O)Nc2ncc(-c3ccccc3)s2)cc1)c1ccc2ccccc2c1`, the half-life is over 30 min.

On to `Cc1sc2c(c1C)C(c1ccc(Cl)cc1)=N[C@@H](CC(=O)Nc1ccc(OCCOCCOCCOCCNc3cccc4c3C(=O)N(C3CCC(=O)NC3=O)C4=O)cc1)c1nnc(C)n1-2` (stereo partly specified), for which the half-life was 1.26 min.

`Clc1ccc(-c2nc(-c3ccc(Br)o3)no2)c(Cl)c1` showed a half-life of 13 min.

`Cc1nc2ccc(Nc3nc(-c4ccncc4)nc4ccccc34)cc2s1` registered a half-life of 10 min.

The compound `CC1CCN(S(=O)(=O)c2ccc3c(ccc(=O)n3CC(=O)NCc3ccc(Cl)cc3)c2)CC1` showed a half-life of 1.45 min.

Consider `O=C(NC1CC1)c1ccc(CSCc2ccccc2Cl)o1`, for which the half-life amounted to 1.74 min.

In the case of `CC(C)n1cc(-c2ccc3c(c2)N(C)CC3)c2c(NS(=O)(=O)c3ccn(C)n3)ccnc21`, the half-life was determined as 1.07 min.

Regarding `Nc1c(S(=O)(=O)c2cccs2)c2nc3ccccc3nc2n1Cc1ccccc1`, the half-life was found to be 1.27 min.

The compound `Nc1nc(Nc2ccc(S(N)(=O)=O)cc2)nn1C(=O)c1c(F)cccc1F` displayed a half-life of over 30 min.

`COC(=O)[C@@]12OC[C@]34[C@H]([C@@H](O)[C@@H]1O)[C@@]1(C)CC(=O)C(O)=C(C)[C@@H]1C[C@H]3OC(=O)[C@H](OC(=O)/C=C(\C)C(C)C)[C@@H]24` showed a half-life of 10.1 min.

Consider `Cc1ccccc1C(=O)N1CCc2cc(-c3nc(NC(=O)CC4CCCCC4)sc3C)ccc21`, for which the half-life is 11 min.

Compound `Cn1cc(Cl)c(C2N=C(Nc3nc4ccccc4o3)NC3=C2C(=O)CCC3)n1` (stereo unspecified) displayed a half-life of 7.84 min.

`CC(C)Oc1ccc(-c2csc(N3CCC(C(N)=O)CC3)n2)cc1`: the half-life was over 30 min.

With `O=C(Nc1ncc(Cc2ccc(C(F)(F)F)cc2)s1)c1ccco1`, the half-life was over 30 min.

Regarding `N#Cc1cnc(NS(=O)(=O)c2ccc(NC(=O)Cc3ccc(F)c(Cl)c3)cc2)s1`, the half-life was over 30 min.

In turn, `Nc1nc2c(s1)C(c1c(Cl)cccc1Cl)CC(=O)N2` (stereo unspecified) came in with a half-life of 23.8 min.

In turn, `NC(=O)C1CCN(c2nc(-c3cccc([N+](=O)[O-])c3)cs2)CC1` yielded a half-life of 2.3 min.

Take `Cc1cc(NC(=S)N2CCN(c3cccc(C(F)(F)F)c3)CC2)nc2ccccc12`: the half-life is 26 min.

Compound `Cc1ccc2[nH]c(-c3ccccc3)cc(=O)c2c1` yielded a half-life of 15.9 min.

Regarding `O=c1c(-c2ccc(O)cc2)coc2cc(O)cc(O)c12`, the half-life was over 30 min.

For `Cc1ccc(S(=O)(=O)Nc2ccccc2C(=O)Nc2ncc(-c3ccccc3)s2)cc1`, the half-life worked out at 13 min.

`O=C(Nc1ccc(S(=O)(=O)Nc2nccs2)cc1)c1ccncc1` gave a half-life of over 30 min.

In turn, `O=C(Nc1cccc(C(F)(F)F)c1)C1=CCN(Cc2ccc(F)cc2)CC1` yielded a half-life of 3.4 min.

The compound `COc1ccc(-c2c(-c3cc(C(=O)O)ccn3)ncn2C)cc1` returned a half-life of over 30 min.

As for `O=C1Nc2ccccc2C1Cc1cc(Cl)c(O)c(Cl)c1` (stereo unspecified), the half-life was determined as 24 min.

Take `Cc1ccc(S(=O)(=O)Nc2cnccc2C(=O)Nc2nc(-c3cc(Br)cs3)cs2)cc1`: the half-life was over 30 min.

For the compound `C/C=C1/CN2CC[C@@]34c5ccccc5N(C)[C@@H]3[C@@H]2C[C@@H]1[C@H]4C(=O)OC`, the half-life was 4.13 min.

`COc1cccc(CNc2ccc(S(=O)(=O)Nc3cccc4ccncc34)cc2)c1O`: the half-life amounted to 10 min.

`CC(C)(C)OC(=O)N[C@@H](Cc1ccc(OS(=O)(=O)c2cccc3cnccc23)cc1)C(=O)N1CCCN(C(=O)OC(C)(C)C)CC1` had a half-life of 2 min.

Regarding `O=C(Nc1cc(Cc2ccccc2)ccn1)c1ccc(-c2cccc([N+](=O)[O-])c2)o1`, the half-life was found to be 4.8 min.

Regarding `O=C(c1cnc(N2CCCCC2)c2ccccc12)N1CCN(c2ccccn2)CC1`, the half-life was determined as 2.1 min.

The compound `COc1ccc(-c2cnc(N3CCC(C(N)=O)CC3)s2)cc1OC` registered a half-life of over 30 min.

With `COc1cccc(CNc2ccc(S(=O)(=O)Nc3cccc4ccccc34)cc2)c1O`, the half-life was 5.8 min.

`COc1ccc(NC(=O)c2cc(-c3ccc[nH]3)n[nH]2)cc1OC` returned a half-life of over 30 min.

The compound `O=S(=O)(Nc1nccs1)c1ccc(NCc2cc(F)ccc2O)cc1` registered a half-life of 12 min.

`Cn1c2ccccc2c(=O)c2c(=O)n(-c3ccccc3)c(C3CCCCC3)nc21` displayed a half-life of over 30 min.

In turn, `Cc1ccnc(NC(=S)N2CCN(c3ccc(C(F)(F)F)cc3)CC2)c1` had a half-life of over 30 min.

In turn, `O=C(Nc1ccccc1C(=O)Nc1ccccc1C(=O)NCc1ccco1)c1ccco1` displayed a half-life of 11 min.
